In the NIST ThermoML archive (doi:10.1016/j.fluid.2005.08.011):
± gives the expanded uncertainty stated by the source.

Settings: Gas, isochoric method

CCF [fluoroethane]
Settings	mass density [kg/m3]
300.16 K, 642.2 kPa	13.92 ± 0.088
305.16 K, 656.6 kPa	13.917 ± 0.088
310.14 K, 670.4 kPa	13.913 ± 0.088
312.16 K, 1205.6 kPa	27.61 ± 0.11
314.16 K, 1218.3 kPa	27.607 ± 0.11
315.15 K, 684.8 kPa	13.91 ± 0.087
316.15 K, 1231.8 kPa	27.605 ± 0.11
318.15 K, 1244.1 kPa	27.602 ± 0.11
320.14 K, 698.5 kPa	13.906 ± 0.086
322.16 K, 1268.7 kPa	27.596 ± 0.11
324.15 K, 1614.6 kPa	37.54 ± 0.14
325.14 K, 712.3 kPa	13.903 ± 0.082
326.14 K, 1634.4 kPa	37.536 ± 0.14
326.16 K, 1293.4 kPa	27.591 ± 0.11
328.15 K, 1652.5 kPa	37.533 ± 0.14
330.15 K, 1670.2 kPa	37.529 ± 0.14
330.16 K, 726.1 kPa	13.899 ± 0.081
330.16 K, 1317.6 kPa	27.585 ± 0.11
332.15 K, 2022.6 kPa	48.84 ± 0.18
334.16 K, 1341.9 kPa	27.58 ± 0.11
334.16 K, 1704.9 kPa	37.521 ± 0.14
334.16 K, 2047.7 kPa	48.835 ± 0.18
335.15 K, 739.5 kPa	13.896 ± 0.08
336.16 K, 2072.5 kPa	48.83 ± 0.17
338.12 K, 2287.8 kPa	56.23 ± 0.2
338.16 K, 1739 kPa	37.514 ± 0.14
338.17 K, 1365.6 kPa	27.574 ± 0.11
338.2 K, 2096.6 kPa	48.825 ± 0.18
339.16 K, 2108.2 kPa	48.823 ± 0.18
340.12 K, 2318.8 kPa	56.224 ± 0.2
340.15 K, 752.5 kPa	13.892 ± 0.078
340.15 K, 2419 kPa	60.32 ± 0.22
340.16 K, 2120.6 kPa	48.821 ± 0.18
342.12 K, 2347.8 kPa	56.219 ± 0.2
342.16 K, 1388.9 kPa	27.569 ± 0.11
342.16 K, 2144.2 kPa	48.816 ± 0.18
342.16 K, 2450.7 kPa	60.314 ± 0.22
342.17 K, 1773.5 kPa	37.506 ± 0.14
344.12 K, 2376.7 kPa	56.213 ± 0.2
344.16 K, 2167.5 kPa	48.811 ± 0.17
344.16 K, 2482.2 kPa	60.308 ± 0.22
346.12 K, 2404.5 kPa	56.208 ± 0.2
346.14 K, 2707.5 kPa	68.66 ± 0.24
346.15 K, 768.9 kPa	13.888 ± 0.076
346.15 K, 1412.4 kPa	27.563 ± 0.11
346.15 K, 2513.1 kPa	60.302 ± 0.22
346.16 K, 1806.7 kPa	37.499 ± 0.14
346.16 K, 2190.7 kPa	48.806 ± 0.17
347.15 K, 2725.9 kPa	68.657 ± 0.24
348.13 K, 2432.7 kPa	56.202 ± 0.2
348.15 K, 2743.8 kPa	68.653 ± 0.24
348.16 K, 2214 kPa	48.801 ± 0.17
348.16 K, 2543 kPa	60.296 ± 0.22
350.15 K, 1435.8 kPa	27.558 ± 0.11
350.15 K, 2460.5 kPa	56.196 ± 0.2
350.15 K, 2779.8 kPa	68.646 ± 0.25
350.16 K, 1840.5 kPa	37.491 ± 0.14
350.16 K, 2237.2 kPa	48.796 ± 0.17
350.16 K, 2573.4 kPa	60.29 ± 0.22
350.16 K, 2978.2 kPa	78.21 ± 0.28
351.16 K, 2999.9 kPa	78.206 ± 0.27
352.15 K, 2488.2 kPa	56.191 ± 0.2
352.15 K, 2815 kPa	68.639 ± 0.24
352.16 K, 2260.1 kPa	48.791 ± 0.17
352.16 K, 2603.3 kPa	60.284 ± 0.21
352.17 K, 3021.2 kPa	78.202 ± 0.27
353.14 K, 3180.2 kPa	85.66 ± 0.3
353.16 K, 3042.3 kPa	78.198 ± 0.27
354.15 K, 3204.5 kPa	85.656 ± 0.3
354.16 K, 790.7 kPa	13.883 ± 0.074
354.16 K, 1458.8 kPa	27.552 ± 0.1
354.16 K, 1873.7 kPa	37.484 ± 0.14
354.16 K, 2283 kPa	48.787 ± 0.17
354.16 K, 2515.3 kPa	56.185 ± 0.2
354.16 K, 2633.4 kPa	60.278 ± 0.21
354.16 K, 2850.7 kPa	68.633 ± 0.24
354.17 K, 3062.9 kPa	78.194 ± 0.28
355.15 K, 3227.8 kPa	85.651 ± 0.3
356.14 K, 2542.3 kPa	56.18 ± 0.2
356.15 K, 2663.1 kPa	60.272 ± 0.21
356.15 K, 2885.7 kPa	68.626 ± 0.24
356.16 K, 2305.7 kPa	48.782 ± 0.17
356.16 K, 3104.4 kPa	78.187 ± 0.27
356.26 K, 3251.2 kPa	85.647 ± 0.3
357.26 K, 3274.8 kPa	85.642 ± 0.3
358.15 K, 1481.8 kPa	27.547 ± 0.11
358.15 K, 1906.7 kPa	37.477 ± 0.14
358.15 K, 2569.2 kPa	56.174 ± 0.19
358.15 K, 2920 kPa	68.619 ± 0.24
358.15 K, 3297.7 kPa	85.639 ± 0.31
358.16 K, 2328.4 kPa	48.777 ± 0.17
358.16 K, 2692.5 kPa	60.266 ± 0.21
358.16 K, 3145.7 kPa	78.179 ± 0.27
358.16 K, 3506.4 kPa	97.915 ± 0.34
359.16 K, 3534.2 kPa	97.91 ± 0.34
360.15 K, 2595.9 kPa	56.168 ± 0.19
360.15 K, 2954.3 kPa	68.612 ± 0.24
360.16 K, 2721.3 kPa	60.26 ± 0.21
360.16 K, 3186 kPa	78.171 ± 0.27
360.16 K, 3343.9 kPa	85.63 ± 0.3
360.16 K, 3562.2 kPa	97.905 ± 0.34
360.17 K, 2350.8 kPa	48.772 ± 0.17
360.17 K, 3660.7 kPa	104.59 ± 0.38
361.15 K, 3589.9 kPa	97.9 ± 0.33
361.16 K, 3691 kPa	104.585 ± 0.37
362.14 K, 2622.7 kPa	56.163 ± 0.19
362.15 K, 811.8 kPa	13.877 ± 0.072
362.15 K, 2988.3 kPa	68.605 ± 0.23
362.15 K, 3226.2 kPa	78.163 ± 0.27
362.15 K, 3389.2 kPa	85.622 ± 0.3
362.15 K, 3617 kPa	97.896 ± 0.34
362.16 K, 1505 kPa	27.541 ± 0.1
362.16 K, 1939.6 kPa	37.469 ± 0.14
362.16 K, 3721.4 kPa	104.58 ± 0.37
362.17 K, 2373 kPa	48.767 ± 0.17
362.17 K, 2750.9 kPa	60.254 ± 0.21
363.15 K, 3644.5 kPa	97.891 ± 0.33
363.16 K, 3751.4 kPa	104.574 ± 0.37
364.15 K, 2649.2 kPa	56.157 ± 0.19
364.15 K, 3023 kPa	68.598 ± 0.23
364.15 K, 3434.4 kPa	85.613 ± 0.3
364.15 K, 3780.8 kPa	104.569 ± 0.36
364.16 K, 2394.9 kPa	48.762 ± 0.17
364.16 K, 3266.5 kPa	78.156 ± 0.27
364.16 K, 3671.6 kPa	97.886 ± 0.34
364.17 K, 2779.6 kPa	60.248 ± 0.21
365.16 K, 3698.9 kPa	97.881 ± 0.33
365.16 K, 3810.4 kPa	104.564 ± 0.36
366.14 K, 1527.7 kPa	27.536 ± 0.11
366.14 K, 2675.7 kPa	56.152 ± 0.19
366.15 K, 1971.5 kPa	37.462 ± 0.13
366.15 K, 3056.7 kPa	68.592 ± 0.23
366.15 K, 3306.2 kPa	78.148 ± 0.26
366.15 K, 3478.5 kPa	85.605 ± 0.29
366.15 K, 3725.2 kPa	97.876 ± 0.33
366.15 K, 3839.8 kPa	104.559 ± 0.36
366.16 K, 2417.4 kPa	48.757 ± 0.17
366.16 K, 2808.4 kPa	60.242 ± 0.21
367.15 K, 3751.8 kPa	97.871 ± 0.33
367.15 K, 3869 kPa	104.554 ± 0.36
368.14 K, 2702 kPa	56.146 ± 0.19
368.14 K, 3090.7 kPa	68.585 ± 0.23
368.15 K, 3346 kPa	78.14 ± 0.26
368.15 K, 3523.3 kPa	85.596 ± 0.29
368.15 K, 3898.1 kPa	104.548 ± 0.36
368.16 K, 2439.4 kPa	48.753 ± 0.16
368.16 K, 2837.3 kPa	60.236 ± 0.2
368.16 K, 3778.8 kPa	97.866 ± 0.33
369.14 K, 3805.1 kPa	97.861 ± 0.33
369.15 K, 3927.3 kPa	104.543 ± 0.36
370.12 K, 1550.1 kPa	27.531 ± 0.1
370.13 K, 3123.8 kPa	68.578 ± 0.23
370.14 K, 2728 kPa	56.14 ± 0.19
370.14 K, 3568 kPa	85.588 ± 0.29
370.14 K, 3831.8 kPa	97.857 ± 0.33
370.15 K, 833.2 kPa	13.872 ± 0.071
370.15 K, 2461.8 kPa	48.748 ± 0.17
370.15 K, 3385.9 kPa	78.132 ± 0.26
370.15 K, 3956.2 kPa	104.538 ± 0.35
370.16 K, 2004 kPa	37.454 ± 0.13
370.16 K, 2865.8 kPa	60.23 ± 0.2
